# Test results taken from PMC3617544 (The Open Medicinal Chemistry Journal, 2013).
# Experiments:
# BACE-1 [1] = molecular target: T1, BACE-1 (Homo sapiens, UniProt P56817); assay: BACE-1 enzyme assay; format: biochemical
# BACE-1 [2] = molecular target: T1, BACE-1; assay: BACE-1 cell assay; settings: HEK293, read-out: percent inhibition of BACE-1 in cell-based assay
# T1 sequence (P56817 46-501): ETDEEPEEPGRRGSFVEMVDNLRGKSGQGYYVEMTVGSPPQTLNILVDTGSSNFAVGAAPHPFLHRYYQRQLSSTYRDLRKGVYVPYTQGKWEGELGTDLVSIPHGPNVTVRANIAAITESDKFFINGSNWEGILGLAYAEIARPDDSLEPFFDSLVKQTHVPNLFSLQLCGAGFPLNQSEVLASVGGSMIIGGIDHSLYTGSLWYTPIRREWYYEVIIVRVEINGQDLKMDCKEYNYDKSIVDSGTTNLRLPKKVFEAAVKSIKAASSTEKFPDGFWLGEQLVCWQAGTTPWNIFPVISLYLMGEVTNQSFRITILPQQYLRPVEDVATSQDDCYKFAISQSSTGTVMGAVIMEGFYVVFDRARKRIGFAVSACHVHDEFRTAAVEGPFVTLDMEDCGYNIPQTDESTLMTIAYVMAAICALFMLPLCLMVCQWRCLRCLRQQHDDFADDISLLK
SMILES,IC50 (BACE-1 [1]) [nM],inhibition at 1 µM (BACE-1 [2]) [%]
"CO[C@H](C[C@H](O)[C@@H](N)COc1cccc(OCc2ccccc2)c1)C(=O)N[C@H](C(=O)NCc1ccccc1)C(C)C [Compound 17, (2R,4S,5S)-5-Amino-6-(3-benzyloxy-phenoxy)-4-hydroxy-2-methoxy-hexanoic acid ((S)-1-benzylcarbamoyl-2-methyl-propyl)-amide]",> 10000,–
"CO[C@H](C[C@H](O)[C@H](COc1ccc(OCc2ccccc2)cc1)NC(=O)c1cccc(N(C)S(C)(=O)=O)c1)C(=O)N[C@H](C(=O)NCc1ccccc1)C(C)C [Compound 19, N-[(1S,2S,4R)-4-((S)-1-Benzylcarbamoyl-2-methyl-propylcarbamoyl)-1-(4-benzyloxy-phenoxymethyl)-2-hydroxy-4-methoxy-butyl]-3-(methanesulfonyl-methyl-amino)-benzamide]",4600,–
"CC[C@H](C)[C@H](NC(=O)[C@@H](C[C@H](O)[C@H](COc1ccc(-c2ccccc2)c(OCCCOC)c1)NC(=O)c1cc(C(=O)N[C@H](C)c2ccccc2)cc(N(C)S(C)(=O)=O)c1)OC)C(=O)NCc1ccc(Cl)cc1 [Compound 25, N-{(1S,2S,4R)-4-[(1S,2S)-1-(4-Chloro-benzylcarbamoyl)-2-methyl-butylcarbamoyl]-2-hydroxy-4-methoxy-1-[2-(3-methoxypropoxy)-biphenyl-4-yloxymethyl]-butyl}-5-(methanesulfonyl-methyl-amino)-N'-((R)-1-phenyl-ethyl)-isophthalamide]",69,3
"CC[C@H](C)[C@H](NC(=O)[C@@H](C[C@H](O)[C@@H](N)COc1ccc(-c2ccc(F)cc2)cc1)OC)C(=O)NCc1ccc(Cl)cc1 [Compound 23, (2R,4S,5S)-5-Amino-6-(4'-fluoro-biphenyl-4-yloxy)-4-hydroxy-2-methoxy-hexanoic acid [(1S,2S)-1-(4-chloro-benzylcarbamoyl)-2-methyl-butyl]-amide]",> 10000,–

# Continued, values first:
IC50 (BACE-1 [1]) [nM],inhibition at 1 µM (BACE-1 [2]) [%],SMILES
2700,–,"COCCCOc1cc(OC[C@H](N)[C@@H](O)C[C@@H](OC)C(=O)N[C@H](C(=O)NCc2ccc(Cl)cc2)C(C)C)ccc1-c1ccc(F)cc1 [Compound 20, (2R,4S,5S)-5-Amino-6-[4'-fluoro-2-(3-methoxy-propoxy)-biphenyl-4-yloxy]-4-hydroxy-2-methoxy-hexanoic acid [(S)-1-(4-chloro-benzylcarbamoyl)-2-methyl-propyl]-amide]"
540,28,"CC[C@H](C)[C@@H](CNc1ccc(Cl)cc1)NC(=O)[C@@H](C[C@H](O)[C@@H](N)COc1ccc(-c2ccc(F)cc2)c(OCCCOC)c1)C(C)C [Compound 30, (2S,4S,5S)-5-amino-N-((2S,3S)-1-(4-chlorophenylamino)-3-methylpentan-2-yl)-6-(4'-fluoro-2-(3-methoxypropoxy)bi-phenyl-4-yloxy)-4-hydroxy-2-isopropylhexanamide]"
300,14,"CC[C@H](C)[C@@H](CNc1ccc(Cl)cc1)NC(=O)[C@H](Cc1ccccc1)C[C@H](O)[C@@H](N)COc1ccc(-c2ccc(F)cc2)c(OCCCOC)c1 [Compound 28, (2R,4S,5S)-5-amino-2-benzyl-N-((2S,3S)-1-(4-chlorophenylamino)-3-methylpentan-2-yl)-6-(4'-fluoro-2-(3-methoxypropoxy)biphenyl-4-yloxy)-4-hydroxyhexanamide]"
